US8344004B2, “Cyclic pyridyl-N-[1,3,4]-thiadiazol-2-yl-benzene sulfonamides, processes for their preparation and their use as pharmaceuticals” (Sanofi, priority 2007, dated 2013)
Where two headings read alike, the source gives them in different places.

What was measured:
human PPARdelta = molecular target: T1, human PPARdelta (Homo sapiens, UniProt Q03181); experiment: Cellular PPARdelta assay (stably transfected HEK luciferase reporter cell line); type: cell-based; details: GR-GAL4-humanPPARdelta-LBD
T1 construct: amino acids S139-Y441; expressed in transfected cells; host or cells: HEK cells, stably transfected (pcDNA3, CMV promoter)
T1 sequence (Q03181 139-441): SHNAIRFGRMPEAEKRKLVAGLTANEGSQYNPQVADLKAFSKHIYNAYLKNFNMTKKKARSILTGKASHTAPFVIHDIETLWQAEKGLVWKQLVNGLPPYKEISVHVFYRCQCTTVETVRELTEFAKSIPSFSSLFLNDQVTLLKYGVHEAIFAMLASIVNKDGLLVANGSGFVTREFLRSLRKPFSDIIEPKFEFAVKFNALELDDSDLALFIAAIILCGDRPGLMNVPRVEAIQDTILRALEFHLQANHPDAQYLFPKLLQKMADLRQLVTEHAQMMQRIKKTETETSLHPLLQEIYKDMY
Protocol: The PPARalphareporter cell line is cultivated to 80% confluence in DMEM (#41965-039, Invitrogen) which is mixed with the following additions: 10% cs-FCS (fetal calf serum; #SH-30068.03, Hyclone), 0.5 mg/ml zeocin (#R250-01, Invitrogen), 0.5 mg/ml G418 (#10131-027, Invitrogen), 1% penicillin-streptomycin solution (#15140-122, Invitrogen) and 2 mM L-glutamine (#25030-024, Invitrogen). The cultivation takes place in standard cell culture bottles (# 353112, Becton Dickinson) in a cell culture incubator at 37° C. in the presence of 5% CO2. The 80%-confluent cells are washed once with 15 ml of PBS (#14190-094, Invitrogen), treated with 3 ml of trypsin solution (#25300-054, Invitrogen) at 37° C. for 2 min, taken up in 5 ml of the DMEM described and counted in a cell counter. After dilution to 500.000 cells/ml, 35,000 cells are seeded in each well of a 96 well microtiter plate with a clear plastic base (#3610, Corning Costar). The plates are incubated in the cell culture incubator at 37° C. and 5% CO2 for 24 h.
PPARalpha agonists to be tested are dissolved in DMSO in a concentration of 10 mM. This stock solution is diluted in DMEM (#41965-039, Invitrogen) which is mixed with 5% cs-FCS (#SH-30068.03, Hyclone), 2 mM L-glutamine (#25030-024, Invitrogen) and the previously described antibiotics (zeocin, G418, penicillin and streptomycin). Test substances are tested in 11 different concentrations in the range from 10 μM to 100 pM.
The medium of the PPARalpha reporter cell line seeded on day 1 is completely removed by aspiration, and the test substances diluted in medium are immediately added to the cells. The dilution and addition of the substances is carried out by a robot (Beckman FX). The final volume of the test substances diluted in medium is 100 μl per well of a 96 well microtiter plate. The DMSO concentration in the assay is less than 0.1% v/v in order to avoid cytotoxic effects of the solvent.
The assay plates are incubated in an incubator at 37° C. and 5% CO2 for 24 h.
The PPARalpha reporter cells treated with the test substances are removed from the incubator, and the medium is aspirated off. The cells are lyzed by pipetting 50 μl of Bright Glo reagent (from Promega) into each well of a 96 well microtiter plate. After incubation at room temperature in the dark for 10 minutes, the microtiter plates are measured in the luminometer (Trilux from Wallac). The measuring time for each well of a microtiter plate is 1 sec.
The raw data from the luminometer are transferred into a Microsoft Excel file. Dose-effect plots and EC50 values of PPAR agonists are calculated using the XL.Fit program as specified by the manufacturer (IDBS).
The potency of substances which bind to human PPARdelta and activate it in an agonistic manner is analyzed using a stably transfected HEK cell line (HEK=human embryo kidney) which is referred to here as PPARdelta reporter cell line. In analogy to the assay described for PPARalpha, the PPARdelta reporter cell line also contains two genetic elements, a luciferase reporter element (pdeltaM-GAL4-Luc-Zeo) and a PPARdelta fusion protein (GR-GAL4-humanPPARdelta-LBD) which mediates expression of the luciferase reporter element depending on a PPARdelta ligand. […] The luciferase which is formed can be detected by means of chemiluminescence via an appropriate substrate. […]

human PPARgamma = molecular target: T2, human PPARgamma (Homo sapiens, UniProt P37231); experiment: Cellular PPARgamma assay (transiently transfected HEK cells, luciferase reporter); type: cell-based; details: GAL4-humanPPARgammaLBD
T2 construct: amino acids I152-Y475; expressed in transfected cells; host or cells: HEK cells, transiently transfected with pcDNA3-GAL4-humanPPARgammaLBD
T2 sequence (P37231 182-477 isoform P37231-2 limits assumed): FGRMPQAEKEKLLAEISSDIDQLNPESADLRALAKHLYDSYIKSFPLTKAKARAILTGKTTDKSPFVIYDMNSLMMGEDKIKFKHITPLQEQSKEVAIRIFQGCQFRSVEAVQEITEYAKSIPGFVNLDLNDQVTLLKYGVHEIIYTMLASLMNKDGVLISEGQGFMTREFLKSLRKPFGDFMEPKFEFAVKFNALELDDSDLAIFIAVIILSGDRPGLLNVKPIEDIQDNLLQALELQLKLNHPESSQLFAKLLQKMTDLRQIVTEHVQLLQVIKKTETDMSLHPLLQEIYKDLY
From the text: A transient transfection system is employed to determine the cellular PPARgamma activity of PPAR agonists. It is based on the use of a luciferase reporter plasmid (pGL3basic-5×GAL4-TK) and of a PPARgamma expression plasmid (pcDNA3-GAL4-humanPPARgammaLBD). Both plasmids are transiently transfected into human embryonic kidney cells (HEK cells). There is then expression in these cells of the fusion protein GAL4-humanPPARgammaLBD which binds to the GAL4 binding sites of the reporter plasmid. In the presence of a PPARgamma-active ligand, the activated fusion protein GAL4-humanPPARgammaLBD induces expression of the luciferase reporter gene, which can be detected in the form of a chemiluminescence signal after addition of a luciferase substrate. As a difference from the stably transfected PPARalpha reporter cell line, in the cellular PPARgamma assay the two components (luciferase reporter plasmid and PPARgamma expression plasmid) are transiently transfected into HEK cells because stable and permanent expression of the PPARgamma fusion protein is cytotoxic.
The luciferase reporter plasmid pGL3basic-5×GAL4-TK is based on the vector pGL3basic from Promega. The reporter plasmid is prepared by cloning five binding sites of the yeast transcription factor GAL4 (each binding site with the sequence 5′-CTCGGAGGACAGTACTCCG-3′), together with a 160 bp-long thymidine kinase promoter section (Genbank Accession # AF027128) 5′-upstream into pGL3basic. 3′-downstream of the thymidine kinase promoter is the complete luciferase gene from Photinus pyralis (Genbank Accession # M15077) which is already a constituent of the plasmid pGL3basic used. The cloning and sequencing of the reporter plasmid pGL3basic-5×GAL4-TK took place in analogy to the description in Sambrook J. et. al. (Molecular cloning, Cold Spring Harbor Laboratory Press, 1989).
The PPARgamma expression plasmid pcDNA3-GAL4-humanPPARgammaLBD was prepared by first cloning the cDNA coding for amino acids 1-147 of the yeast transcription factor GAL4 (Genbank Accession # P04386) into the plasmid pcDNA3 (from Invitrogen) 3′-downstream of the cytomegalovirus promoter. Subsequently, the cDNA of the ligand-binding domain (LBD) of the human PPARgamma receptor (amino acids I152-Y475; Accession # g1480099) 3′-downstream of the GAL4 DNA binding domain. Cloning and sequencing of the PPARgamma expression plasmid pcDNA3-GAL4-humanPPARgammaLBD again took place in analogy to the description in Sambrook J. et. al. (Molecular cloning, Cold Spring Harbor Laboratory Press, 1989). Besides the luciferase reporter plasmid pGL3basic-5×GAL4-TK and the PPARgamma expression plasmid pcDNA3-GAL4-humanPPARgammaLBD, also used for the cellular PPARgamma assay are the reference plasmid pRL-CMV (from Promega) and the plasmid pBluescript SK(+) from Stratagene. All four plasmids were prepared using a plasmid preparation kit from Qiagen, which ensured a plasmid quality with a minimal endotoxin content, before transfection into HEK cells.
The activity of PPARgamma agonists is determined in a 4-day assay which is described below. Before the transfection, HEK cells are cultivated in DMEM (#41965-039, Invitrogen) which is mixed with the following additions: 10% FCS (#16000-044, Invitrogen), 1% penicillin-streptomycin solution (#15140-122, Invitrogen) and 2 mM L-glutamine (#25030-024, Invitrogen).
Firstly, solution A, a transfection mixture which contains all four plasmids previously described in addition to DMEM, is prepared. […]

[1] = diabetic animal model; cited from earlier work
[2] = obese, insulin resistant rhesus monkeys; cited from earlier work
[3] = two weeks clinical trials in healthy volunteers; cited from earlier work
[4] = rhesus and cynomolgus monkeys; cited from earlier work

Row | EC50 (human PPARdelta) [nM] | EC50 (human PPARgamma) [nM] | SMILES | also measured
1 | 60 | 26 | CC(C)c1nnc(NS(=O)(=O)c2ccc(C3(CNc4ncc(C(F)(F)F)cc4Cl)CCCCC3)cc2)s1 [Example 1, 4-{1-[(3-Chloro-5-trifluoromethyl-pyridin-2-ylamino)-methyl]-cyclohexyl}-N-(5-isopropyl-[1,3,4]thiadiazol-2-yl)-benzenesulfonamide] | 
2 | 67 | 647 | CC(C)c1nnc(NS(=O)(=O)c2ccc([C@@H]3CCC[C@H]3Nc3ncc(C(F)(F)F)cc3Cl)cc2)s1 [Example 2, Trans-4-[(1S,2R)-2-(3-chloro-5-trifluoromethyl-pyridin-2-ylamino)-cyclopentyl]-N-(5-isopropyl-[1,3,4]thiadiazol-2-yl)-benzene-sulfonamide] | 
3 | 1 | 1800 | CC(C)c1nnc(NS(=O)(=O)c2ccc([C@@H]3CCC[C@@H]3Nc3ncc(C(F)(F)F)cc3Cl)cc2)s1 [Example 3, Cis-4-[(1S,2R)-2-(3-chloro-5-trifluoromethyl-pyridin-2-ylamino)-cyclopentyl]-N-(5-isopropyl-[1,3,4]thiadiazol-2-yl)-benzene-sulfonamide] | 
4 | 220 | 990 | CC(C)c1nnc(NS(=O)(=O)c2ccc(C3(CNc4ncc(C(F)(F)F)cc4Cl)CCCC3)cc2)s1 [Example 4, 4-{1-[(3-Chloro-5-trifluoromethyl-pyridin-2-ylamino)-methyl]-cyclopentyl}-N-(5-isopropyl-[1,3,4]thiadiazol-2-yl)-benzene-sulfonamide] | 
5 | 779 | > 10000 | CC(C)c1nnc(NS(=O)(=O)c2cc3c(cc2Cl)CC(Nc2ncc(C(F)(F)F)cc2Cl)C3)s1 (centres unmarked) [Example 8, 6-Chloro-2-(3-chloro-5-trifluoromethyl-pyridin-2-ylamino)-indan-5-sulfonic acid (5-isopropyl-[1,3,4]thiadiazol-2-yl)amide] | 
6 |  |  | CCCc1c(OCCCOc2ccc(OCC(=O)O)cc2)ccc(C(C)=O)c1O [Example L-165041] | plasma cholesterol [1]: raises plasma cholesterol
7 |  |  | Cc1cc(SCc2sc(-c3ccc(C(F)(F)F)cc3)nc2C)ccc1OCC(=O)O [GW501516] | HDL-cholesterol [2]: raises; insulin levels [2]: decreases; plasma LDL-cholesterol [2]: decreases; triglycerides [2]: decreases
8 |  |  | CCCc1c(OCCCSc2nnc(SCC(=O)O)s2)ccc(C(C)=O)c1O [YM-16638] | plasma lipids [3]: acts in a similar manner; plasma lipids [4]: significantly lowers
